This note sets out measurements from patent US8501679B2, “Cyclic, cystein-free protein” (priority 2007, dated 2013).

In data set [1] the test system is sodium ion channels of H441 cells. Description: Activation of ion channels of human epithelial cells, patch-clamp (whole cell / cell-attached). It is filed as cell-based. Particulars: FIG. 2A/2B. From the text: Furthermore, a method common in laboratories is to detect the activation of ion channels by means of patch-clamp experiments, and this is described, for example, in Clunes M. T. et al, J Physiol Volume 557, No. 3, 809-819 (Jun. 15, 2004). For patch-clamp examinations of ion channels, a glass cannula is stretched thin and filled with a neutral buffer solution. The glass cannula (patch-clamp pipette) is carefully pressed onto an intact epithelial cell. A piece of membrane is located below the pipette. An electrical resistance is thereby produced between the interior of the pipette and the external solution. An electrode attached to a sensitive amplifier dips into the pipette solution.
The electrophysiological experiments were performed on human H441 cells. H441 cells are human lung epithelial cells which are involved in the diffusion of water and electrolytes in the lungs.
The H441 cells were obtained from the American Tissue Culture Collection and cultivated in conventional cell culture vessels in RPMI 1640 medium (Invitrogen). […]
This protocol was carried out by adding proteins comprising amino acid sequence SEQ ID NO:1 or SEQ ID NO:2 as well as the sodium channel inhibitor amiloride. The current dissipations thus obtained were stored and analyzed by means of the program PCLAMP 6.0.
(In general: Patch clamp records ionic current or voltage across a cell membrane.)

Data set [2] relates to pulmonary oedema / acute lung injury in Wistar rats. Description: Experimental animal study pulmonary oedema: lungs rinsed with acidified saline, arterial oxygen content. It is filed as in vivo, rat. Particulars: for improvement in the lung function (increased oxygen content in arterial blood): laboratory animals, injected into the lungs as a fog or aqueous solution, within 3 to 5 hours; for oxygen content of the arterial blood, % relative to the value before rinsing the lungs / oxygen content in the blood after administering protein: rat; for oxygen content of the arterial blood, % relative to the value before rinsing the lungs: 125 μg protein intratracheal, 180 minutes after rinsing the lungs, 20% at 60 minutes and without protein; for oxygen content in the blood after administering protein: intratracheal as a fog one hour after lung rinsing, FIG. 3A/3B. The protocol:
For the simulation of an acute lung injury and for the formation of a pulmonary oedema, the lungs of laboratory animals, e.g., mice or rats, can be rinsed several times with an acidified saline solution in a manner common in laboratories (for example, according to Isik F. et al., Eur J Cardiothorac Surg (2005); 28: 301-305). The result is a decrease in lung function.
Male Wistar rats (weighing from 250 g to 350 g) are anesthetized with Rompun® (0.02 ml/100 g) and Ketavet® (0.1 ml/100 g). The respiration is done with a cycle of 72 blows/minute, with an inhalation time of 0.2 seconds and an exhalation time of 0.5 seconds. The body temperature ranges, on average, from 37° C. to 39° C. Under normal conditions, the PaO2 (arterial oxygen partial pressure) ranges from 500 to 550 mm Hg.
For the simulation of an acute lung injury and for the formation of a pulmonary oedema, the lungs are rinsed 7 to 9 times with an acidified saline solution (pH 5).
After one hour, the proteins comprising amino acid sequence SEQ ID NO:1 or SEQ ID NO:2, dissolved in sterile saline solution, are administered intratracheally as a fog (maximum volume administered: 0.5 ml).
At intervals of 60 minutes each, arterial blood (0.1 ml) is withdrawn from the animals, and the oxygen content is determined in % relative to the normal value.
The verification of the stimulating effect of a protein according to the present invention, e.g., of a protein comprising amino acid sequence SEQ ID NO:1, SEQ ID NO:2 or SEQ ID NO:3, on the lung function is made via experimental animal studies in which a pulmonary oedema is induced. The experimental procedure is described in Example 5.
For the intratracheal inhalation, 125 μg protein are, in each case, dissolved in 150 mM saline solution pH 7.3. The oxygen content of the arterial blood is measured immediately before rinsing the lungs, 60 minutes after rinsing the lungs and 180 minutes after rinsing the lungs. The oxygen content immediately before rinsing the lungs is determined to be 100%. 60 minutes after the respective final lung rinsing, the oxygen content in the blood amounts to, on average, only 20%. Within 3 hours, the percentage oxygen content rises to values of […]

The test system of data set [3] is human immune cells in fresh blood (IL-6 release). Put plainly: Determination of inflammatory parameters: release of Interleukin-6 from human fresh blood (ELISA). It is filed as cell-based. Particulars: for release of the inflammation marker IL-6: human immune cells from blood incubated with the substance; for Concentration of Interleukin-6 (average of three measurements): human fresh blood, 24 hours at 37° C. As for the experimental part:
For the examination, human immune cells from the blood are mixed with protein according to the present invention at a small concentration and are incubated in a manner common in laboratories. Subsequently, marker proteins for inflammations are determined in cell-free culture media by conventional methods.
Fresh human blood has a very sensitive reaction to pro-inflammatory molecules, among other things, with a release of the inflammation marker Interleukin-6 (IL-6). For determining the pro-inflammatory reaction, samples of human fresh blood at concentrations of the protein comprising amino acid sequence SEQ ID NO:2 were incubated at the following concentrations from 1 ng/ml to 10 μg/ml. After an incubation of 24 hours at 37° C., the inflammation marker Interleukin-6 was quantitatively determined in the solution via ELISA. LPS served as a positive control (concentrations of 3 ng/ml and 100 ng/ml).
In doing so, the measured data, which are indicated in TABLE 1 and which show the influence of the peptide protein comprising amino acid sequence SEQ ID NO:2 in comparison to LPS on the release of the inflammation marker Interleukin-6 from blood cells, were obtained.
For orientation: ELISA stands for enzyme-linked immunosorbent assay.

Molecules are shown by their SMILES. “Also recorded” adds a separate entry of the source. Where a SMILES comes first, the peptide text is derived from it. Bridges are numbered along the chain shown (N, C = ends).

Turning to `CC[C@H](C)[C@H](NC(=O)[C@H](C)NC(=O)[C@H](CO)NC(=O)[C@H](CC(C)C)NC(=O)[C@H](CC(C)C)NC(=O)[C@H](CC(N)=O)NC(=O)[C@@H](N)C(C)C)C(=O)N[C@H]1CCCCNC(=O)CC[C@@H](C(=O)N2CCC[C@H]2C(=O)N[C@H](C(=O)N[C@@H](Cc2ccc(O)cc2)C(=O)N[C@@H](CC(C)C)C(=O)NCC(=O)O)[C@@H](C)CC)NC(=O)[C@H](Cc2ccc(O)cc2)NC(=O)[C@H](Cc2c[nH]c3ccccc23)NC(=O)[C@@H]2CCCN2C(=O)[C@H](CCCCN)NC(=O)[C@H](C)NC(=O)[C@H](CCC(=O)O)NC(=O)[C@H](C)NC(=O)CNC(=O)[C@H](CCC(=O)O)NC(=O)[C@@H]2CCCN2C(=O)[C@H]([C@@H](C)O)NC(=O)[C@H](CCC(=O)O)NC(=O)[C@H](CCCNC(=N)N)NC(=O)[C@H](CCC(N)=O)NC(=O)CNC(=O)[C@@H]2CCCN2C(=O)[C@H](CO)NC1=O` [SEQ ID NO:1] (H-VNLLSAIKSPGQRETPEGAEAKPWYEPIYLG-OH; lactam 8-26), the “activation of the sodium ion channels (amplitude of electrical signal)” value in data set [1] is recorded as “activation of the sodium ion channels”. Moreover, in data set [2], the “improvement in the lung function (increased oxygen content in arterial blood)” value was “distinct improvement in the lung function”; the “oxygen content of the arterial blood, % relative to the value before rinsing the lungs” value is 62%; the “oxygen content in the blood after administering protein” value is “increased”. For the same molecule, the “release of the inflammation marker IL-6” value in data set [3] is “cannot be detected”.
As to `C[C@@H]1NC(=O)CNC(=O)[C@H](CCC(=O)O)NC(=O)[C@@H]2CCCN2C(=O)[C@H]([C@@H](C)O)NC(=O)[C@H](CCC(=O)O)NC(=O)[C@H](CCCNC(=N)N)NC(=O)[C@H](CCC(N)=O)NC(=O)CNC(=O)[C@@H]2CCCN2C(=O)[C@H](CO)NC(=O)[C@@H](N)CCCCNC(=O)CC[C@@H](C(=O)O)NC(=O)[C@H](Cc2ccc(O)cc2)NC(=O)[C@H](Cc2c[nH]c3ccccc23)NC(=O)[C@@H]2CCCN2C(=O)[C@H](CCCCN)NC(=O)[C@H](C)NC(=O)[C@H](CCC(=O)O)NC1=O` [SEQ ID NO:2, (NH2)Lys-Ser-Pro-Gly-Gln-Arg-Glu-Thr-Pro-Glu-Gly-Ala-Glu-Ala-Lys-Pro-Trp-Tyr-Glu(COOH)], the “activation of the sodium ion channels (amplitude of electrical signal)” value in data set [1] was “activation of the sodium ion channels”. In data set [2], the “improvement in the lung function (increased oxygen content in arterial blood)” value is on record as “distinct improvement in the lung function”. For the same molecule, the “oxygen content of the arterial blood, % relative to the value before rinsing the lungs” value in data set [2] is recorded as 75%. Also, the “oxygen content in the blood after administering protein” value in data set [2] is “increased”. Also, the “Concentration of Interleukin-6 (average of three measurements)” value in data set [3] (1 ng/ml), in data set [3] (3 ng/ml), in data set [3] (1 μg/ml) and in data set [3] (10 μg/ml) was “less than 0.5 pg/ml” each time. Also, the “release of the inflammation marker IL-6” value in data set [3] was “cannot be detected; also recorded: virtually no inflammation marker IL-6 is released”.
